Data from patent US5376681A, “Aminocoumaran derivatives, their production and use” (Takeda Chemical Industries, Ltd., priority 1990, dated 1994).

Tested on: behavior induced by spinal intrathecal injection of FeCl2 in mice
Experiment: Effect of drugs on the change of the behavior induced by spinal intrathecal injection of FeCl2 in mice (Experiment 1)
Assay type: in vivo, mice (male Slc: ICR)
Settings: oral, 30 minutes prior to ferrous chloride injection; for % inhibition: 100 mg/kg, calculated from mean scores vs saline; for Mean Score Administration of Test Compound of 100 mg/kg: behavioral score 0 (normal) to 5 (death), 10 mice per group
Method: Effect of drugs on the change of the behavior induced by spinal intrathecal injection of FeCl2 in mice
Male Slc: ICR mice (5 weeks) (10 mice per group) were used. Saline (5 μl/mouse) containing 50 mM FeCl2 was injected into the subarachnoid space between the 6th lumbar segment and the 1st sacral and scored as follows.
Percent inhibitions were calculated based on the scores evaluated above. The test compounds were orally administered 30 minutes prior no ferrous chloride injection. […]

SMILES | % inhibition [%] | Mean Score Administration of Test Compound of 100 mg/kg
Cc1c(C)c2c(c(C)c1N)CC(C)(Cc1ccccc1)O2 (stereo not shown) [Example 1, 5-Amino-2-benzyl-2,4,6,7-tetramethyl-2,3-dihydrobenzofuran] | 73.9 | 1.2
CCNc1c(C)c(C)c2c(c1C)CC(C)(CCc1ccc(F)cc1)O2 (stereo not shown) [Example 47, 5-Ethylamino-2-[2-(4-fluorophenyl)ethyl]-2,4,6,7-tetramethyl-2,3-dihydrobenzofuran] | 79.6 | 1.0
Cc1c(C)c2c(c(C)c1N)CC(C)(CCc1ccccc1)O2 (stereo not shown) [Example 84, 5-Amino-2,4,6,7-tetramethyl-2-(2-phenylethyl)-2,3-dihydrobenzofuran] | 89.1 | 0.5
Cc1c(C)c2c(c(C)c1N)CC(C)(CCc1ccc(F)cc1)O2 (stereo not shown) [Example 85, 5-Amino-2,4,6,7-tetramethyl-2-[2-(4-fluorophenyl)ethyl]-2,3-dihydrobenzofuran] | 87.0 | 0.6
Cc1c(C)c2c(c(C)c1N)CC(C)(C)O2 [Example 103, 5-Amino-2,2,4,6,7-pentamethyl-2,3-dihydrobenzofuran] | 98.0 | 0.1
